Patent publication US20080051319A1, “Inhibiting JNK Signaling Promotes CNS Axon Regeneration” (Children's Medical Center Corporation, priority 2006, published 2008)

Tested on: 4 week-old rat DRGs
Test: in vitro neurite outgrowth assay on immobilized AP-Nogo-66
Assay type: cell-based
Procedure: JNK is a member of the mitogen-activated protein kinase (MAP kinase) family which is abundantly expressed in axons and growth cones, and has been implicated in numerous roles including cell stress and cell proliferation. […] Briefly, 4 week-old rat DRGs were dissected, dissociated and plated onto immobilized substrates (AP (100 ng/cm^2) or AP-Nogo-66 (100 ng/cm^2)). Cells were cultured for 24 h before fixation with 4% paraformaldehyde and staining with a neuronal-specific anti-β-tubulin III antibody (Tuj-1, Covance). The average lengths of the longest neurite in individual neurons were measured from at least 150 neurons per condition, from duplicate wells and from three independent experiments, and quantified as described previously. Immunohistochemistry was performed using antibodies against p75 (Chemicon).

SMILES: Oc1c2ccccc2c2c3c(cccc13)N=N2 [SP600125]
- concentrations resulting in an abortion of neurite extension: above 5 μM
